Results as given in US9180115B2, “Cyclohexylamines” (Asana Biosciences, LLC, priority 2011, dated 2015).
“And” between values parts separate entries of the source, which are not always exact repeats. Identical values can stand only once. Like-named read-outs stand apart in the source and are kept apart here.

Experiments:
[1] = test system: sodium channel response in hTRPV1-N1E115 cells; assay: FLIPR membrane potential assay of sodium channel response in hTRPV1-N1E115 cells with or without heat (47° C.) activation; assay type: cell-based; settings: for hTRPV1-N1E Nav 0.1 mM (% inhibition) 25° C. / hTRPV1-N1E Nav 1 mM (% inhibition) 25° C.: 25° C. (no heat activation); for hTRPV1-N1E Nav 0.1 mM (% inhibition) 47° C. / hTRPV1-N1E Nav 1 mM (% inhibition) 47° C.: 47° C. (heat activated); for IC50: read-out: hTRPV1-N1E IC50 (μM) 47° C.
From the text: In one embodiment, a modified FLIPR® (Fluorometric Imaging Plate Reader) based assay system was developed which is capable of discriminating between non-specific versus hTRPV1-mediated entry of test compounds. Advantageously, the assay system utilizes heat activated opening of hTRPV1 channels followed by an assessment of internal sodium channel block. The assay allows a permanently charged compound to selectively enter through opened hTRPV1 channels and that compound's potency in inhibiting sodium channels from the cytoplasm side of the same cell can be assessed and quantified.
The test compounds are diluted in the Assay Buffer and added to each well of a specific 384-well ‘compound plate’, which serves as a source plate for compound addition using the FLIPR® platform. The concentration of compounds in the compound-plate was adjusted to achieve the desired final concentration when added to the cells in the ‘cell-plate’. After completion of the dye incubation period, the dye loaded cell-plates and the compound source plates are inserted into the FLIPR® Tetra device with a 384 FLIPR® tip box (Molecular Devices, Inc.) according to manufacturer's instructions. The compounds are robotically added to the dye loaded cell-plates using software integral to the FLIPR® Tetra instrument.
Immediately following compound addition, hTRPV1 is activated, in one of the duplicate cell plates, by heating. Specifically, entire multi-well plate containing the compound-cells mixture is incubated at 47° C. for 10 minutes, after which they are returned to room temperature (about 25° C.) for a further 30 minutes. Heat activation of hTRPV1 was omitted from the replicate cell plate which was simply maintained at room temperature for the entire 40 minutes.
A membrane potential response is elicited in the dye- and compound-loaded cells by the addition of veratridine which is a known sodium channel ‘agonist’. As illustrated in an example herein, an agonist plate containing veratridine (Sigma) is prepared in advance and is inserted into suitable devices such as, e.g., the FLIPR® TETRA device for a “2nd addition” as instructed by the manufacturer. The concentration of veratridine in the ‘agonist plate’ was adjusted to achieve a final concentration of 100 μM when added to the cells in the cell-plate. Final concentrations of veratridine greater or lesser than 100 μM may also be used but the signal measured by the FLIPR® TETRA device or another suitable device may vary accordingly.
The exposure of the cells in the cell-plate to veratridine induces sodium channels in the cells to open and the resulting ion flux produces a membrane potential depolarization that is detected as a fluorescence signal by the FLIPR® Tetra Device. The activity of test compounds is determined by their ability to attenuate the veratridine-induced fluorescence signal, the most promising compounds are those that show an enhanced activity in the heat-activated cell plate over the non-heat-activated cell plate. This differential activity reflects enhanced compound uptake via the heat activated and open hTRPV1 channels and rests on the fact that sodium channel block requires test compounds to act from the cytoplasmic side of the cell membrane.
In vitro assays were developed for assessing the inhibition of sodium channel response with compounds following stimulation by heat (47° C.) in cells expressing hTRPV1.
(v) Membrane potential Assay to Assess Sodium Channel Function in hTRPV1-Expressing Cells • Cells were plated at 5000 per 50 μL [DMEM+10% FBS+300 μg/mL H\hygromycin] per well, in a 384 clear bottom poly-D-lysine coated plate and incubated at 37° C. and 5% CO2 for 48 hours. On the day of the assay, media were discarded gently and 30 μL of the dye [FMP blue dye was prepared in assay buffer] per well was added and dye-loading was allowed to proceed for 20 min at room temperature. […]

[2] = molecular target: T1, human Nav1.5 sodium channel (Homo sapiens, UniProt Q14524); assay: FLIPR membrane potential assay in hNav1.5-HEK293 cells; assay type: cell-based
T1 construct: host or cells: HEK-293
T1 sequence (Q14524 whole entry): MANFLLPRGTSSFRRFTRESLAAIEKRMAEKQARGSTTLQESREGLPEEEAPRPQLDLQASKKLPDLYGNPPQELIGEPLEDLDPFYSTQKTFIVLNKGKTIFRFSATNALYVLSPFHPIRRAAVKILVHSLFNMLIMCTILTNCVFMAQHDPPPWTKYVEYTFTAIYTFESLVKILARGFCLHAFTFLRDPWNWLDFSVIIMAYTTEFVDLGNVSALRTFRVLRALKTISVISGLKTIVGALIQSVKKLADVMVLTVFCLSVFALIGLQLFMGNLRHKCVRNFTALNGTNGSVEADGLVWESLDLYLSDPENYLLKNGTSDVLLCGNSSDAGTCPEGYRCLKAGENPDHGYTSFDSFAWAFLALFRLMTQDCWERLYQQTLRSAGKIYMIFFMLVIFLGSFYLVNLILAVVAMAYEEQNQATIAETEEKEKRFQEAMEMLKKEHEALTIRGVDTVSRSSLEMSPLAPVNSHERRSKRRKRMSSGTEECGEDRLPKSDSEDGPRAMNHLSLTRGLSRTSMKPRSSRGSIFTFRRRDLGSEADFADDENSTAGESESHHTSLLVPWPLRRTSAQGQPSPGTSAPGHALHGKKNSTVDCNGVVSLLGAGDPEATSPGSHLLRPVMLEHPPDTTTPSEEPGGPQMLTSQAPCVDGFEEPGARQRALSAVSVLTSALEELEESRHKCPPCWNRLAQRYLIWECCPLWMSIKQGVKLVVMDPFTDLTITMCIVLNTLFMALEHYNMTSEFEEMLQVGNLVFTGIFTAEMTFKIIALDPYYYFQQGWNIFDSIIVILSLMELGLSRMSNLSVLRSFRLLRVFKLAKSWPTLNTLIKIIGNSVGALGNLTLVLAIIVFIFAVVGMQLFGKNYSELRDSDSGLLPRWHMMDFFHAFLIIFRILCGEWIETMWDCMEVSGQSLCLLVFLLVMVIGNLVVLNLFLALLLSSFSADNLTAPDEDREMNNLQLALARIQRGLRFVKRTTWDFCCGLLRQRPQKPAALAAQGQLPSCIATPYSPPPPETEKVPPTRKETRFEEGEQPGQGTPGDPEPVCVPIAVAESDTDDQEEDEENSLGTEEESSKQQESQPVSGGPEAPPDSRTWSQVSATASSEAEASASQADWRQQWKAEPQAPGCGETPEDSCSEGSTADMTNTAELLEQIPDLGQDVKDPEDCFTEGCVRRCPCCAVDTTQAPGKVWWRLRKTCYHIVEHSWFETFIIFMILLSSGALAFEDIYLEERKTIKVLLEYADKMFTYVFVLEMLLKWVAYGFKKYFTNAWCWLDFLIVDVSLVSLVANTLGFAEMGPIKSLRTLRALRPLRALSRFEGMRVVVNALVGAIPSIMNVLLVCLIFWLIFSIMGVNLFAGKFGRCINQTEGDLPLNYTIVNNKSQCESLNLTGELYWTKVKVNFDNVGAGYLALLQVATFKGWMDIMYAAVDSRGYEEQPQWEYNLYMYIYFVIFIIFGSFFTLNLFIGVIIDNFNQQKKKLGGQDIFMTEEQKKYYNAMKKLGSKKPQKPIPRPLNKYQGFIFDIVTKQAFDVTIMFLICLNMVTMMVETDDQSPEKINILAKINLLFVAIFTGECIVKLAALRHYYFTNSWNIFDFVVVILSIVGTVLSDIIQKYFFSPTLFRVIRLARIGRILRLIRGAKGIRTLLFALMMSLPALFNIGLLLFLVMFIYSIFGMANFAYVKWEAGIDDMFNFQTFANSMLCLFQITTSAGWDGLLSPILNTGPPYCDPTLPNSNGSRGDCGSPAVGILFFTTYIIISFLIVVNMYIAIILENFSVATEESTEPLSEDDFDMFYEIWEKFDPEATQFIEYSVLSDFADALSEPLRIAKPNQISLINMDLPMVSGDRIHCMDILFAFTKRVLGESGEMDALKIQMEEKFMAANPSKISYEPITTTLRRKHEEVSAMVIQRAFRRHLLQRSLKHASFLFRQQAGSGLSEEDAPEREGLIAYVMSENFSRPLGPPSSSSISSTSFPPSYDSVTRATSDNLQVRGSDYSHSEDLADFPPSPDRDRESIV
Description: C. Method for Assessing the Extent of Inhibition of Sodium Channel Response with Compounds in hNav1.5-HEK293 Cells.
The following assay was used to assess the tendency of the test compounds to block the dominant cardiac sodium channel isoform. Nav1.5 sodium channels are known to be permeable to quaternary sodium channel blockers such as QX-314 and, thus, the assay was performed in the absence of a chemical TRPV1 agonist.
The hNav1.5-HEK-293 cells (CreaCell, France, a human embryonic kidney cell line expressing the human Nav1.5 sodium channel) were cultured in Growth medium (containing 1×DMEM (Gibco)+10% FBS (PAA Gold)+2% glutamine 100 mM (Gibco)+1% penicillin 10,000 U/mL streptomycin 10,000 μg/mL (Invitrogen)+1.2 mg/mL Geneticin® G418 (Invitrogen)) in 75 mL cell bind flasks (Corning). The following steps were followed exactly as mentioned. The spent medium was discarded and the cells rinsed once with PBS-1×. Accutase® (1-2 mL; PAA) solution was added. The plate was placed on a 37° C. warming incubator 3-5 minutes. As soon as cells are detached, 37° C. complete medium (9 mL) was added. The cell suspension is drawn into a sterile pipette and cells homogenized gently to dissociate cell aggregates. The cells were counted using a hemocytometer with Blue Trypan and then centrifuged 5 minutes at 400 g. The cells can be amplified or maintained by seeding […] in a T75 flask (final volume: 15 mL). 8000 cells in 50 μL Growth medium was added to each well of 384-well, clear bottomed, sterile poly-D-lysine coated plates with lid (Greiner-bio one) inside the laminar air-flow. The plates were incubated at 37° C. and 5% CO2 in a CO2 incubator (Thermo) for 48 hours.
On the day of the assay, cells were washed with Assay buffer, which was prepared using the components and amounts in the following Table 5. pH was adjusted to 7.4 with NaOH, volume made up to 500 mL with Milli-Q® water.
Assay Buffer was added to the cells and incubated at rt (25° C.) for 10 minutes. The compounds were diluted in assay buffer. The compounds were added and incubated at rt (25° C.) for 10 minutes. Red FMP Dye (MDC) was added to the cells and the plate was incubated at rt (25° C.) for 30 minutes. Veratridine stock (20 mM; Sigma) was prepared in DMSO; veratridine (final concentration of 30 μM) in assay buffer was added to each well of the cell seeded plates in the FLIPR and read taken for 10 minutes. The following table provides data illustrating the sodium channel activity of the test compounds in response to the presence or absence of heat stimulation in cells expressing hTRPV1. The compounds were tested for differential activity at 25° C. and 47° C. and at two test concentrations.

[3] = test system: Male Sprague Dawley (SD) rats; assay: In vivo assay of mechanical nociception (rat pinch model, perisciatic injection)
[4] = test compound 0.5%, lidocaine 2%, injection 200 μL
[5] = read-out: HEK Nav 1.5 IC50 (μM) (AVG)
[6] = test compound 0.5%, lidocaine 2%, injection 100 μL

| IC50 ([1]; 47° C.) [µM] | Compound | hTRPV1-N1E Nav 0.1 mM (% inhibition) 25° C. [1] | hTRPV1-N1E Nav 0.1 mM (% inhibition) 47° C. [1] | IC50 ([2]; HEK Nav 1.5 IC50 (μM) (AVG)) [µM] | Average Time of Analgesia [3, 4] | IC50 [2, 5] [µM] | also measured |
| --- | --- | --- | --- | --- | --- | --- | --- |
| 10 to 100 | CC1CCC([N+](C)(C)CC(C)OC(=O)c2ccc(C(C)(C)C)cc2)CC1.[I-] (stereo not drawn) [Example 38, N-[2-((4-(tert-butyl)benzoyl)oxy)propyl]-N,N,4-trimethylcyclo-hexanaminium iodide] | 75 (N = 4) % | 95 (N = 4) % | – | – | 54 | – |
| 10 to 100 | Cc1cc(C)c(C(=O)OC(C)C[N+](C)(C)C2CCC(C)CC2)c(C)c1.[I-] (stereo not drawn) [Example 39, N,N,4-Trimethyl-N-[2-((2,4,6-trimethyl-benzoyl)oxy)propyl] cyclohexanaminium iodide] | 41 (N = 4) % | 7 (N = 4) % | – | – | 89 | – |
| 10 to 100 | CC(C[N+](C)(C)C1CCCCC1)OC(=O)c1ccccc1C(C)C.[I-] (stereo not drawn) [Example 2, N-[2-((2-isopropylbenzoyl)oxy)propyl]-N,N-dimethylcyclohexanaminium iodide] | 23 (N = 4) % | 77 (N = 4) % | – | 12 h | 188 | hTRPV1-N1E Nav 1 mM (% inhibition) 25° C. [1]: 78 (N = 4) %; hTRPV1-N1E Nav 1 mM (% inhibition) 47° C. [1]: 89 (N = 4) % |
| – | Cc1cccc(C)c1C(=O)OC(C)C[N+](C)(C)C1CCCCC1.[I-] (stereo not drawn) [Example 6, N-[2-((2,6-Dimethylbenzoyl)oxy)propyl]-N,N-dimethylcyclohexanaminium iodide] | – | – | – | 14 h and 10 h | 684 | hTRPV1-N1E Nav (% inhibition) 25° C., 0.5 mM ([1]; 0.5 mM, 25° C.): 24 (N = 2, %; hTRPV1-N1E Nav (% inhibition) 47° C., 0.5 mM ([1]; 0.5 mM, 47° C.): 80 (N = 2, %; hTRPV1-N1E Nav (% inhibition) 25° C., 5 mM ([1]; 5 mM, 25° C.): 58 (N = 2, %; hTRPV1-N1E Nav (% inhibition) 47° C., 5 mM ([1]; 5 mM, 47° C.): 92 (N = 2, %; hTRPV1-N1E IC50 (μM) 47° C. ([1]; 47° C.): B ′; inhibition at 10 min, 0.5 mM ([2]; human, hNav1.5-HEK293 cells (HEK-293 cells expressing human Nav1.5), pH 7.4, 0.5 mM, read-out: HEK Nay 1.5% inh. @ 0.5 mM): 30%; inhibition at 10 min, 1.5 mM ([2]; human, hNav1.5-HEK293 cells (HEK-293 cells expressing human Nav1.5), pH 7.4, 1.5 mM, read-out: HEK Nav 1.5% inh. @ 1.5 mM): 68%; analgesic effects in the absence of lidocaine ([3]; absence of lidocaine): analgesic effects of significant duration; Average Time of Analgesia ([3]; test compound 0.5%, lidocaine 0%, injection 200 μL): 5 h; Average Time of Analgesia [3, 6]: 8 h |
| – | C[C@@H](C[N+](C)(C)C1CCCCC1)OC(=O)c1ccc(C(C)(C)C)cc1.[I-] [Example 46, (S)-N-[2-((4-(tert-butyl)benzoyl)oxy)propyl]-N,N-dimethylcyclo-hexanaminium iodide] | 40 (N = 4) % | – | 232 | 24 h | – | – |
| 10 to 100 | Cc1cc(C)c(C(=O)OC(C)C[N+](C)(C)C2CCCCC2)c(C)c1.[I-] (stereo not drawn) [Example 1, N,N-dimethyl-N-[2-((2,4,6-trimethylbenzoyl)oxy)propyl]cyclohexanaminium iodide] | 13 (N = 4) % | 73 (N = 4) % | – | – | 240 | hTRPV1-N1E Nav 1 mM (% inhibition) 25° C. [1]: 53 (N = 4) %; hTRPV1-N1E Nav 1 mM (% inhibition) 47° C. [1]: 92 (N = 4) %; Average Time of Analgesia [3, 6]: 7 h |
| 10 to 100 | CC(C[N+](C)(C)C1CCCCC1)OC(=O)c1sc2ccccc2c1Cl.[I-] (stereo not drawn) [Example 31, N-[2-((3-Chloro-benzo[b]thiophene-2-carbonyl)oxy)propyl]-N,N-dimethyl-cyclohexanaminium iodide] | 27 (N = 4) % | 94 (N = 4) % | – | – | 160 | – |

| Compound | IC50 ([1]; 47° C.) [µM] | hTRPV1-N1E Nav 0.1 mM (% inhibition) 25° C. [1] | hTRPV1-N1E Nav 0.1 mM (% inhibition) 47° C. [1] | IC50 ([2]; HEK Nav 1.5 IC50 (μM) (AVG)) [µM] | Average Time of Analgesia [3, 4] | IC50 [2, 5] [µM] | also measured |
| --- | --- | --- | --- | --- | --- | --- | --- |
| CC(C[N+](C)(C)C1CCCCC1)OC(=O)c1ccc(C(C)(C)C)cc1.[I-] (stereo not drawn) [Example 12, N-[2-((4-(tert-Butyl)benzoyl)oxy)propyl]-N,N-dimethyl-cyclohexanaminium iodide] | 10 to 100 | 25 (N = 4) % | 84 (N = 4) % | 134 | 0.5 h | – | hTRPV1-N1E Nav 1 mM (% inhibition) 25° C. [1]: 17 (N = 4) %; hTRPV1-N1E Nav 1 mM (% inhibition) 47° C. [1]: 88 (N = 4) % |
| C[C@H](C[N+](C)(C)C1CCCCC1)OC(=O)c1ccc(C(C)(C)C)cc1.[I-] [Example 47, (R)-N-[2-((4-(tert-butyl)benzoyl)oxy)propyl]-N,N-dimethylcyclo-hexanaminium iodide] | 10 to 100 | 54 (N = 4) % | – | 255 | 24 h | – | – |
| C[C@H](C[N+](C)(C)C1CCCCC1)OC(=O)c1ccc(C(C)(C)C)cc1.[Br-] [Example 48, (R)-N-[2-((4-(tert-butyl)benzoyl)oxy)propyl]-N,N-dimethylcyclo-hexanaminium bromide] | 10 to 100 | 48 (N = 4) % | – | 252 | – | – | – |
| C[C@@H](C[N+](C)(C)C1CCCCC1)OC(=O)c1ccc(C(C)(C)C)cc1.[Br-] [Example 5, (S)—N-[2-((4-(tert-butyl)benzoyl)oxy)propyl]-N,N-dimethylcyclohexanaminium bromide] | 10 to 100 | 45 (N = 4) % | – | 305 | – | – | paw withdrawal vocalization force ([3]; 0.45% solution with 2% lidocaine, FIG. 1): remained at cut-off for the duration of the experiment; Average Time of Analgesia ([3]; test compound 0.2%, lidocaine 2%, injection 200 μL): 2 h; Average Time of Analgesia ([3]; test compound 0.3%, lidocaine 2%, injection 200 μL): 24 h; Average Time of Analgesia ([3]; test compound 0.4%, lidocaine 2%, injection 200 μL): 44 h; Average Time of Analgesia ([3]; test compound 0.45%, lidocaine 2%, injection 200 μL): >64 h |
